Test results published in US20100204151A1, “USE OF A PEPTIDE AS A THERAPEUTIC AGENT” (priority 2007, published 2010).

Key:
HCMV strain AD169 = experiment: HCMV plaque reduction assay in MRC-5 cells
Pseudomonas aeruginosa = format: cell-based; conditions: 5 micrograms per ml
HUVEC = experiment: Endothelial tube formation assay; format: cell-based, human; conditions: 10 micrograms per ml, 20 hours
From the text: Positive control was vehicle only.

A549 cells [1] = experiment: Apoptosis induction assay (Annexin-5); format: cell-based, human; conditions: 10 micrograms per ml, 24 hours
From the text: Human A549 cells (carcinomic human alveolar basal epithelial cells) were utilized in the experiments employing the Annexin-5 apoptosis assay.

[2] = test system: hepatitis B virus (HBV) ayw strain; experiment: HBV replication assay in HepG2-2.2.15 cells (TaqMan PCR of secreted HBV DNA); format: cell-based; conditions: test peptide 10 micrograms per ml; six days; HBV DNA in supernatant
HIV-1IIIB = experiment: HIV-1 antiviral assay (CPE reduction) in CEM-SS cells; format: cell-based; conditions: for % CPE reduction in HIV-1 infected CEM-SS cells: test peptide 10 micrograms per ml, 6 days post-infection, MTS; for antiviral activity of positive control compounds: HIV-1 assay validity statement
A549 cells [3] = experiment: Propidium iodide cell cycle assay; format: cell-based, human; conditions: 10 micrograms per ml, 24 hours, propidium iodide FACS
Experimental: Human A549 cells (carcinomic human alveolar basal epithelial cells) were utilized in the experiments employing the Propidium iodide cell cycle assay. […] Propidium iodide is an intercalating agent and a fluorescent molecule that can be used to stain DNA. […] Thereafter, cells were pelleted at 1500 rpm for 5 min and resuspended in Propidium iodide solution in PBS. After incubation for 40 min at 37° C., cells were analyzed in the FACS.

[4] = test system: Primary Human endothelial cells (HUVEC); experiment: Endothelial cell migration assay; format: cell-based; conditions: 10 micrograms per ml, 22 hours
RAW 264.7 cells = experiment: Phagocytosis assay (Fluorescein-labeled Escherichia coli, flow cytometry); format: cell-based, mouse; conditions: 10 micrograms per ml, 30 min preincubation, 60 min ingestion
[5] = Cytotoxicity in the HBV assay (dye uptake cell viability); format: cell-based; conditions: human, HepG2-2.2.15 cells, test peptide 10 micrograms per ml
spleen cells = experiment: Th1/Th2 cytokine profiling assay (Ovalbumin-restimulated spleen cells, CBA kit); format: cell-based, Balb/c mice; conditions: 10 micrograms per ml; Ovalbumin restimulation; 72 hours
Streptococcus pneumoniae = format: cell-based; conditions: 5 micrograms per ml
[6] = test system: Human Peripheral Blood Mononuclear Cells (PBMC); experiment: T cell proliferation assay (PHA-stimulated PBMC, 3H-thymidine); conditions: 10 micrograms per ml, 3 days plus 12 hours 3H-thymidine
MRSA = conditions: 5 micrograms per ml
[7] = test system: Human Peripheral Blood Mononuclear Cells (PBMC); experiment: B cell proliferation assay (SAC plus Interleukin-2 stimulated PBMC, 3H-thymidine); format: cell-based; conditions: 10 micrograms per ml, 3 days plus 12 hours 3H-thymidine
A549 cells [8] = experiment: Apoptosis prevention assay (C2 ceramide, Annexin-5); format: cell-based, human; conditions: 10 micrograms per ml, 30 min pretreatment, then C2 ceramide
[9] = test system: macrophages prepared from PBMC; experiment: TNF alpha production assay (LPS-stimulated macrophages, ELISA); format: cell-based, human; conditions: 10 micrograms per ml, lipopolysaccharide 200 ng/ml, overnight
From the text: Not stimulated macrophages served as negative background control.

in vitro [10] = conditions: human, MRC-5 cells (embryonal lung fibroblasts)
in vitro [11] = conditions: human, CEM-SS cells
CEM-SS cells = experiment: Cytotoxicity in the HIV-1 assay (MTS cell viability); conditions: test peptide 10 micrograms per ml

**Q.** With `Nc1nc(O)c2ncn(COC(CO)CO)c2n1` [Ganciclovir, reference compound] as the compound, how does the “antiviral activity of positive control compound” value (HCMV strain AD169; HCMV assay validity statement) read?
**A.** Its value is “expected levels of antiviral activity”.

**Q.** With “Ac-HWAVGHL-NH2 [Acetyl-GRP (20-26), Ac-His-Trp-Ala-Val-Gly-His-Leu-NH2]” as the compound, how does the “% inhibition” value (Pseudomonas aeruginosa) read?
**A.** Its value is 0.0%.

**Q.** What about the “% inhibition of tube formation” value (HUVEC) of the same compound?
**A.** Its value is 24%.

**Q.** What about the “% of induction” value (A549 cells [1]) of the same compound?
**A.** Its value is 1.1%.

**Q.** And the “% inhibition of HBV replication in HEP G2 cells” value [2]?
**A.** The value was 47.8%.

**Q.** And the “% CPE reduction in HIV-1 infected CEM-SS cells” value (HIV-1IIIB)?
**A.** Its value is 0.0%.

**Q.** What about the “Cell cycle analysis G0/G1” value (A549 cells [3]) of the same compound?
**A.** Its value is 59.2.

**Q.** What about the “Cell cycle analysis G2/M” value (A549 cells [3]) of the same compound?
**A.** Its value is 9.6.

**Q.** What about the “Cell cycle analysis S” value (A549 cells [3]) of the same compound?
**A.** The value was 31.2.

**Q.** What about the “% plaque reduction” value (HCMV strain AD169; HCMV in MRC-5 cells, peptide 10 micrograms per ml, 7-10 days) of the same compound?
**A.** Its value is 3.2%.

**Q.** What about the “% inhibition of migration” value [4] of the same compound?
**A.** The value was 50%.

**Q.** What about the “% of control phagocytosis” value (RAW 264.7 cells) of the same compound?
**A.** The value was 102.9%.

**Q.** And the viability at 144 h, 10 micrograms per ml [5]?
**A.** Its viability at 144 h, 10 micrograms per ml is 95.3%.

**Q.** And the “IFNγ spleen cells; TH1 response (% of control)” value (spleen cells)?
**A.** The value was 117.9 % of control.

**Q.** What about the “IL-2 spleen cells (% of control)” value (spleen cells) of the same compound?
**A.** The value was 202.7 % of control.

**Q.** What about the “IL-4 spleen cells; TH2 response (% of control)” value (spleen cells) of the same compound?
**A.** Its value is 168.7 % of control.

**Q.** What about the “IL-5 spleen cells; TH2 response (% of control)” value (spleen cells) of the same compound?
**A.** Its value is 102.5 % of control.

**Q.** What about the “TNF-a spleen cells; TH1 response (% of control)” value (spleen cells) of the same compound?
**A.** Its value is 145.8 % of control.

**Q.** And the “% inhibition” value (Streptococcus pneumoniae)?
**A.** The value was 0.0%.

**Q.** And the “% of PHA induced control” value [6]?
**A.** Its value is 97.5%.

**Q.** What about the “% inhibition” value (MRSA) of the same compound?
**A.** The value was 0.0%.

**Q.** And the “% of SAC/IL2 induced control” value [7]?
**A.** The value was 123.6%.

**Q.** What about the “% prevention of ceramide induced apoptosis” value (A549 cells [8]) of the same compound?
**A.** The value was 0.0%.

**Q.** What about the “% of LPS induction” value [9] of the same compound?
**A.** Its value is 102.4%.

**Q.** What about the viability at 144 h (in vitro [10]) of the same compound?
**A.** The viability at 144 h was 100%.

**Q.** What about the viability at 10 micrograms per ml (in vitro [11]) of the same compound?
**A.** Its viability at 10 micrograms per ml is 100%.

**Q.** Which “antiviral activity of positive control compounds” value (HIV-1IIIB) does the source give for `CC(C)(C)NC(=O)[C@@H]1CN(Cc2cccnc2)CCN1C[C@@H](O)C[C@@H](Cc1ccccc1)C(=O)N[C@H]1c2ccccc2C[C@H]1O` [Indinavir, indinavir] here?
**A.** Its value is “expected levels of antiviral activity”.

**Q.** With `Cc1cn([C@H]2C[C@H](N=[N+]=[N-])[C@@H](CO)O2)c(=O)[nH]c1=O` [AZT] as the compound, how does the “antiviral activity of positive control compounds” value (HIV-1IIIB) read?
**A.** The value was “expected levels of antiviral activity”.

**Q.** And the “% CPE reduction in HIV-1 infected CEM-SS cells” value (HIV-1IIIB)?
**A.** The value was 99%.

**Q.** What about the “% Cell viability” value (CEM-SS cells) of the same compound?
**A.** Its value is 97%.
